Data on 32 compounds can be found in patent publication US9493411B2 (AbbVie Inc., priority 2013, dated 2016).

For one experiment, the target named is T1, BRD4 (BDI_K57-E168) (Homo sapiens, UniProt O60885).
T1 construct: BD1: amino acids K57-E168; made in house
Description: TR-FRET bromodomain binding assay, BRD4 first bromodomain. The conditions noted are these: His-tagged BD1, Alexa647-labeled probe 100 nM; Ki calculated from IC50. The gist of the method:
(§1)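 Read-out: TR-FRET ratio after 1 h at room temperature, normalized to controls and fitted for IC50, then converted to Ki. Reaction held 8 nM His-tagged domain, 1 nM Eu-anti-His antibody, Alexa647 probe (BDI 100 nM; BDII 30 nM) and test compound in 2% DMSO.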

The target in the next experiment is T2, BRD4 (BDII_E352-M457) (Homo sapiens, UniProt O60885).
T2 construct: made in house
Description: TR-FRET bromodomain binding assay, BRD4 second bromodomain. To be noted: His-tagged BD2, Alexa647-labeled probe 30 nM; Ki calculated from IC50. The gist of the method: as §1

Experiment [1] concerns breast cancer cell line MX-1. Description: MX-1 cell line proliferation assay. The class given is cell-based. The conditions noted are these: Homo sapiens, MX1, 72 h, MX-1 cells, 3-day proliferation assay, Cell Titer Glo; read-out: Cellular proliferation: EC50. On the procedure: The impact of compounds of the Examples on cancer cell proliferation was determined using the breast cancer cell line MX-1 (ATCC) in a 3-day proliferation assay and the data are reported in Table 1. MX-1 cells were maintained in RPMI 1640 medium (Sigma) supplemented with 10% FBS at 37° C. and an atmosphere of 5% CO2. For compound testing, MX-1 cells were plated in 96-well black bottom plates at a density of 5000 cells/well in 90 μL of culture media and incubated at 37° overnight to allow cell adhesion and spreading. Compound dilution series were prepared in DMSO via a 3-fold serial dilution from 3 mM to 0.1 μM. The DMSO dilution series were then diluted 1:100 in phosphate buffered saline, and 10 μL of the resulted solution were added to the appropriate wells of the MX-1 cell plate. The final compound concentrations in the wells were 3, 1, 0.3, 0.1, 0.03, 0.01, 0.003, 0.001, 0.0003 and 0.0001 μM.
Luminescence readings from the Cell Titer Glo assay were normalized to the DMSO treated cells and analyzed using the GraphPad Prism software with sigmoidal curve fitting to obtain EC50s. The minimum significant ratio (MSR) was determined to evaluate assay reproducibility (Eastwood et al., (2006) J Biomol Screen, 11: 253-261).
Background: ATP-based viability assays read luminescence as a measure of living cells.

Bounds are passed on as bounds.

The term Ki denotes a measure of affinity in units of concentration, obtained from inhibition or displacement. For the compound `Cc1[nH]c(-c2ccccc2NCC2CCNCC2)cc1C(N)=O` [Example 43, 2-methyl-5-{2-[(piperidin-4-ylmethyl)amino]phenyl}-1H-pyrrole-3-carboxamide], the Ki was 0.469 µM at BRD4 (BDI_K57-E168) and 11 µM at BRD4 (BDII_E352-M457). The EC50 in experiment [1] is greater than 10 µM.
Taken in the same sequence, the figures for `Cc1[nH]c(-c2ccccc2NCC2CCN(C(=O)OC(C)(C)C)C2)cc1C(N)=O` (stereo not drawn) [Example 40, tert-butyl 3-({[2-(4-carbamoyl-5-methyl-1H-pyrrol-2-yl)phenyl]amino}methyl)pyrrolidine-1-carboxylate] were 0.212 µM, 5.58 µM and greater than 10 µM.
With `CCc1ccc(Oc2ccccc2-c2cc(C(N)=O)c(C)[nH]2)cc1` [Example 143, 5-[2-(4-ethylphenoxy)phenyl]-2-methyl-1H-pyrrole-3-carboxamide], the Ki at BRD4 (BDI_K57-E168) is 0.259 µM; on BRD4 (BDII_E352-M457), 2.11 µM.
As to `Cc1[nH]c(-c2ccccc2NCc2ccc(C#N)cc2)cc1C(N)=O` [Example 31, 5-{2-[(4-cyanobenzyl)amino]phenyl}-2-methyl-1H-pyrrole-3-carboxamide], the Ki on BRD4 (BDI_K57-E168) is 1.4 µM; at BRD4 (BDII_E352-M457), 6.23 µM.
As to `Cc1[nH]c(-c2ccccc2NCc2cc(Cl)cc(Cl)c2)cc1C(N)=O` [Example 39, 5-{2-[(3,5-dichlorobenzyl)amino]phenyl}-2-methyl-1H-pyrrole-3-carboxamide], the values for the Ki at BRD4 (BDI_K57-E168) and at BRD4 (BDII_E352-M457) were 3.82 µM and 4.98 µM, respectively.
With `COC(=O)CCNC(=O)c1cc(-c2ccc(-c3c(C)noc3C)cc2)[nH]c1C` [Example 93, methyl N-({5-[4-(3,5-dimethyl-1,2-oxazol-4-yl)phenyl]-2-methyl-1H-pyrrol-3-yl}carbonyl)-beta-alaninate], the Ki on BRD4 (BDI_K57-E168) is 5.09 µM; on BRD4 (BDII_E352-M457), 6.42 µM.
As for `Cc1[nH]c(-c2cccc(-c3ccc4c(ccn4C)c3)c2)cc1C(N)=O` [Example 156, 2-methyl-5-[3-(1-methyl-1H-indol-5-yl)phenyl]-1H-pyrrole-3-carboxamide], the values for the Ki on BRD4 (BDI_K57-E168) and at BRD4 (BDII_E352-M457) were 8.49 µM and 21.9 µM, respectively.
Taken in the same sequence, the figures for `Cc1[nH]c(-c2ccccc2N(Cc2cccs2)CC2CCCC2)cc1C(N)=O` [Example 60, 5-{2-[(cyclopentylmethyl)(thiophen-2-ylmethyl)amino]phenyl}-2-methyl-1H-pyrrole-3-carboxamide] were 5.1 µM and 20.5 µM.
The matching figures for `Cc1[nH]c(-c2c(N)cccc2Oc2ccccc2)cc1C(N)=O` [Example 91, 5-(2-amino-6-phenoxyphenyl)-2-methyl-1H-pyrrole-3-carboxamide]: 0.331 µM and 3.35 µM.
The matching figures for `Cc1[nH]c(-c2cccc3cc[nH]c23)cc1C(N)=O` [Example 164, 5-(1H-indol-7-yl)-2-methyl-1H-pyrrole-3-carboxamide]: 1 µM and 2.03 µM.
As to `Cc1[nH]c(-c2ccccc2Oc2ccccc2Cc2ccccc2)cc1C(N)=O` [Example 138, 5-[2-(2-benzylphenoxy)phenyl]-2-methyl-1H-pyrrole-3-carboxamide], the figures for the Ki on BRD4 (BDI_K57-E168) and on BRD4 (BDII_E352-M457) were 1.48 µM and 1.82 µM, respectively.
The matching figures for `Cc1[nH]c(-c2ccccc2Br)cc1C(N)=O` [Example 115, 5-(2-bromophenyl)-2-methyl-1H-pyrrole-3-carboxamide]: 1.85 µM and 7.12 µM.
In the case of `Cc1[nH]c(-c2ccccc2NS(=O)(=O)c2ccccc2)cc1C(N)=O` [Example 78, 2-methyl-5-{2-[(phenylsulfonyl)amino]phenyl}-1H-pyrrole-3-carboxamide], the Ki on BRD4 (BDI_K57-E168) was 3.99 µM; on BRD4 (BDII_E352-M457), 0.712 µM.
The matching figures for `Cc1[nH]c(-c2ccccc2Oc2ccc(C#N)cc2)cc1C(N)=O` [Example 123, 5-[2-(4-cyanophenoxy)phenyl]-2-methyl-1H-pyrrole-3-carboxamide]: 1.97 µM and 12.6 µM.
On to `Cc1[nH]c(-c2ccc(-c3cnn(Cc4ccccc4)c3)cc2)cc1C(N)=O` [Example 111, 5-[4-(1-benzyl-1H-pyrazol-4-yl)phenyl]-2-methyl-1H-pyrrole-3-carboxamide], for which the values for the Ki on BRD4 (BDI_K57-E168) and on BRD4 (BDII_E352-M457) were 6.9 µM and 5.74 µM, respectively.
The matching figures for `Cc1[nH]c(-c2cccc3[nH]cnc23)cc1C(N)=O` [Example 163, 5-(1H-benzimidazol-4-yl)-2-methyl-1H-pyrrole-3-carboxamide]: 0.912 µM and 2.81 µM.
The matching figures for `Cc1[nH]c(-c2ccc(-c3cccc(O)c3)cc2)cc1C(N)=O` [Example 98, 5-(3′-hydroxybiphenyl-4-yl)-2-methyl-1H-pyrrole-3-carboxamide]: 11.3 µM and 7.01 µM.
Consider `Cc1[nH]c(-c2ccccc2NCc2cc(Br)cs2)cc1C(N)=O` [Example 15, 5-(2-{[(4-bromothiophen-2-yl)methyl]amino}phenyl)-2-methyl-1H-pyrrole-3-carboxamide], for which the Ki on BRD4 (BDI_K57-E168) is 2.58 µM; at BRD4 (BDII_E352-M457), 2.31 µM.
Take `Cc1[nH]c(-c2ccccc2NC2CCC2)cc1C(N)=O` [Example 66, 5-[2-(cyclobutylamino)phenyl]-2-methyl-1H-pyrrole-3-carboxamide]: the results for the Ki on BRD4 (BDI_K57-E168) and on BRD4 (BDII_E352-M457) were 1.76 µM and 6.15 µM, respectively.
Take `Cc1[nH]c(-c2ccc(N)cc2)cc1C(N)=O` [Example 8, 5-(4-aminophenyl)-2-methyl-1H-pyrrole-3-carboxamide]: the Ki at BRD4 (BDI_K57-E168) was 2.68 µM; at BRD4 (BDII_E352-M457), 3.72 µM.
For `Cc1noc(C)c1-c1ccc(-c2cc(C(=O)NO)c(C)[nH]2)cc1` [Example 95, 5-[4-(3,5-dimethyl-1,2-oxazol-4-yl)phenyl]-N-hydroxy-2-methyl-1H-pyrrole-3-carboxamide], the figures for the Ki at BRD4 (BDI_K57-E168) and on BRD4 (BDII_E352-M457) were 5.07 µM and 5.62 µM, respectively.
Regarding `Cc1[nH]c(-c2ccccc2NCc2ccc(Cl)cc2)cc1C(N)=O` [Example 11, 5-{2-[(4-chlorobenzyl)amino]phenyl}-2-methyl-1H-pyrrole-3-carboxamide], the figures for the Ki at BRD4 (BDI_K57-E168) and at BRD4 (BDII_E352-M457) were 2.87 µM and 2.51 µM, respectively.
Turning to `CCOC(=O)Cc1ccc(OCc2ccccc2)c(-c2cc(C(N)=O)c(C)[nH]2)c1` [Example 165, ethyl [4-(benzyloxy)-3-(4-carbamoyl-5-methyl-1H-pyrrol-2-yl)phenyl]acetate], the Ki at BRD4 (BDI_K57-E168) was 0.595 µM; on BRD4 (BDII_E352-M457) it was 7.49 µM.
For the compound `Cc1[nH]c(-c2ccc(-c3cncnc3)cc2)cc1C(N)=O` [Example 109, 2-methyl-5-[4-(pyrimidin-5-yl)phenyl]-1H-pyrrole-3-carboxamide], the Ki on BRD4 (BDI_K57-E168) was 9.24 µM; at BRD4 (BDII_E352-M457), 4.42 µM.
The matching figures for `Cc1[nH]c(-c2cc(NS(C)(=O)=O)ccc2Oc2ccccc2)cc1C(N)=O` [Example 162, 2-methyl-5-{5-[(methylsulfonyl)amino]-2-phenoxyphenyl}-1H-pyrrole-3-carboxamide]: 0.0591 µM and 0.754 µM.
The matching figures for `Cc1[nH]c(-c2ccc(-c3cccc(N4CCOCC4)c3)cc2)cc1C(N)=O` [Example 105, 2-methyl-5-[3′-(morpholin-4-yl)biphenyl-4-yl]-1H-pyrrole-3-carboxamide]: 6.78 µM and 5.34 µM.
On to `Cc1[nH]c(-c2ccccc2NCc2ccc(CO)o2)cc1C(N)=O` [Example 55, 5-[2-({[5-(hydroxymethyl)furan-2-yl]methyl}amino)phenyl]-2-methyl-1H-pyrrole-3-carboxamide], for which the results for the Ki on BRD4 (BDI_K57-E168) and on BRD4 (BDII_E352-M457) were 0.722 µM and 4.94 µM, respectively.
For `Cc1[nH]c(-c2ccccc2Oc2ccccc2)cc1C(N)=O` [Example 89, 2-methyl-5-(2-phenoxyphenyl)-1H-pyrrole-3-carboxamide], the Ki is 0.122 µM at BRD4 (BDI_K57-E168) and 0.351 µM on BRD4 (BDII_E352-M457).
For `Cc1[nH]c(-c2ccccc2NS(=O)(=O)CCC(F)(F)F)cc1C(N)=O` [Example 82, 2-methyl-5-(2-{[(3,3,3-trifluoropropyl)sulfonyl]amino}phenyl)-1H-pyrrole-3-carboxamide], the Ki is 2.96 µM on BRD4 (BDI_K57-E168) and 8.72 µM on BRD4 (BDII_E352-M457).
The matching figures for “2-methyl-5-[2-(pyridin-2-yloxy)phenyl]-1H-pyrrole-3-carboxamide [Example 131]”: 9.4 µM and 22.2 µM.
Consider `Cc1n[nH]c(C)c1-c1ccc(-c2cc(C(N)=O)c(C)[nH]2)cc1` [Example 112, 5-[4-(3,5-dimethyl-1H-pyrazol-4-yl)phenyl]-2-methyl-1H-pyrrole-3-carboxamide], for which the Ki at BRD4 (BDI_K57-E168) is 5.43 µM; at BRD4 (BDII_E352-M457), 4.31 µM.
As for `Cc1ccc(CNc2ccccc2-c2cc(C(N)=O)c(C)[nH]2)cc1` [Example 29, 2-methyl-5-{2-[(4-methylbenzyl)amino]phenyl}-1H-pyrrole-3-carboxamide], the inhibition constant (Ki) was 2.77 µM at BRD4 (BDI_K57-E168) and 4.41 µM at BRD4 (BDII_E352-M457).
